SMILES strings stand for the structures.

The source of these data is patent US20240316093A1, “NEPHROTOXICITY REDUCING AGENT” (NIPPON SHINYAKU CO., LTD., priority 2021, published 2024).

Data set [1] relates to kidney of C57BL/6J male mice. As to conditions: mouse, in vivo.
Experimental: The obtained dosing solutions were administered into the tail vein of 6-week-old C57BL/6J male mice (N=5) at 20 mL/kg. Next day, the mice were subjected to autopsy, and formalin-fixed paraffin-embedded samples of the respective kidneys were prepared. Sections obtained by slicing the samples were subjected to hematoxylin-eosin staining and a histopathological test of the sections was performed.
For data set [2], the system named is kidney of C57BL/6J male mice. The data set is described as follows: Histopathological test of kidney (hematoxylin-eosin) after PMO No. 8 with or without sucrose (Example 2). To be noted: Example 2, histopathological test, PMO No. 8 with sucrose.
Experimental: (§1) The obtained dosing solutions were administered into the tail vein of 6-week-old C57BL/6J male mice (N=3) at 10 and 12 mL/kg. Next day, serum was collected from the mice, and the blood urea nitrogen (BUN) values and blood creatinine (Cre) values were measured with the urease-GIDH method and the enzymatic method, respectively, using an automatic biochemical analyzer JCA-BM8060 (manufactured by JEOL Ltd.). […] Sections obtained by slicing the samples were subjected to hematoxylin-eosin staining and a histopathological test of the sections was performed.
The test system of data set [3] is C57BL/6J male mice. Put plainly: BUN and Cre values in serum after tail-vein administration of PMO dosing solutions with or without sucrose (Example 2). To be noted: Example 2, PMO Nos. 8 and 9 with sucrose.
Experimental: as §1
The test system of data set [4] is C57BL/6J male mice. Put plainly: BUN and Cre values in serum after tail-vein administration of PMO dosing solutions with or without sucrose or trehalose (Example 5). As to conditions: Example 5, PMO Nos. 1, 8 and 9 with sucrose or trehalose.
Experimental: Also, the antisense oligomers of PMO Nos. 1, 8, and 9 were each dissolved in water for injection comprising 0.9% sodium chloride, and a solution obtained by dissolving trehalose (manufactured by FUJIFILM Wako Pure Chemical Corporation) with physiological saline was added thereto to prepare a dosing solution comprising each of the antisense oligomers and trehalose at the concentrations shown in Tables 15 to 17.
The obtained dosing solutions were administered into the tail vein of 6-week-old C57BL/6J male mice (N=2 to 3) at 20 mL/kg. Next day, serum was collected from the mice, and the blood urea nitrogen (BUN) values and blood creatinine (Cre) values were measured with the urease-GIDH method and the enzymatic method, respectively, using an automatic biochemical analyzer JCA-BM8060 (manufactured by JEOL Ltd.).
A short description of data set [5]: Precipitation suppressing effect of trehalose, absorbance at 620 nm in the presence of ions assumed to be in urine (Example 7). In kind it is physicochemical. As to conditions: Example 7, PMO Nos. 1, 2, 7, 8; aqueous solution of trehalose versus water for injection; KCl and NaCl, 37° C.
Experimental: Each of the antisense oligomers was dissolved in water for injection or an aqueous solution of trehalose, and the mixture was then mixed with an aqueous solution comprising potassium chloride and sodium chloride assumed to be in urine. The absorbance at 620 nm of the solution thus mixed was measured using a plate reader, Infinite F200 Pro (manufactured by Tecan Group Ltd.) under the heating condition of 37° C. […] Accordingly, conditions were set under which the precipitation was observed using water for injection as a medium for each sequence. Another measurement was performed under the same conditions as obtained except that only the medium was changed to an aqueous solution of trehalose, and then the absorbance obtained under both the conditions was compared to each other. When the absorbance was increased, precipitation was determined to be observed, and a time until the precipitation was observed and the increased value of the absorbance were evaluated. When the aqueous solution of trehalose was used as the medium, it was determined that the precipitation suppressing effect was presented in a case where the time until the precipitation was observed was longer or in a case where the increased value of the absorbance was smaller than the case of using the water for injection as the medium.

With `OC[C@H]1O[C@@](CO)(O[C@H]2O[C@H](CO)[C@@H](O)[C@H](O)[C@H]2O)[C@@H](O)[C@@H]1O` [sucrose], the “Nephrotoxicity reducing effect (toxicological findings on the histopathological test of the kidney)” value in data set [1] is given as “confirmed to reduce nephrotoxicity”. For the same molecule, in data set [2], the “Amount of precipitates (basophilic substances in the lumens of renal tubules)” value is “amount of precipitates decreased according to the concentrations of sucrose”. Besides, the “Nephrotoxicity reducing effect (BUN values and Cre values versus control dosing solution comprising no sucrose)” value with C57BL/6J male mice [3] is on record as “confirmed to reduce nephrotoxicity”. The “Nephrotoxicity reducing effect (BUN values and Cre values versus dosing solution comprising neither sucrose nor trehalose)” value with C57BL/6J male mice [4] is “confirmed to reduce nephrotoxicity”.
`OC[C@H]1O[C@H](O[C@H]2O[C@H](CO)[C@@H](O)[C@H](O)[C@H]2O)[C@H](O)[C@@H](O)[C@@H]1O` [trehalose]: the “Precipitation suppressing effect (time until the precipitation was observed, increase of the absorbance at 620 nm)” value in data set [5] was “suppress the precipitation of antisense oligomers”. Also, in the data set on C57BL/6J male mice [4], the “Nephrotoxicity reducing effect (BUN values and Cre values versus dosing solution comprising neither sucrose nor trehalose)” value is reported as “confirmed to reduce nephrotoxicity”.
